Assay results as given in US12565501B2, “Muscarinic acetylcholine M1 receptor antagonists” (Contineum Therapeutics, Inc., priority 2019, dated 2026).

The molecules below were run against T1, human M1 receptor (Homo sapiens, UniProt P11229) (assay: In vitro functional assay of muscarinic acetylcholine receptor activity (aequorin calcium flux, reversal of EC80 acetylcholine response)). Details: CHO-K1 cells stably expressing human M1 receptor with aequorin; acetylcholine at EC80; calcium flux (luminescence); read-out: M1 IC50.
T1 sequence (P11229 1-460): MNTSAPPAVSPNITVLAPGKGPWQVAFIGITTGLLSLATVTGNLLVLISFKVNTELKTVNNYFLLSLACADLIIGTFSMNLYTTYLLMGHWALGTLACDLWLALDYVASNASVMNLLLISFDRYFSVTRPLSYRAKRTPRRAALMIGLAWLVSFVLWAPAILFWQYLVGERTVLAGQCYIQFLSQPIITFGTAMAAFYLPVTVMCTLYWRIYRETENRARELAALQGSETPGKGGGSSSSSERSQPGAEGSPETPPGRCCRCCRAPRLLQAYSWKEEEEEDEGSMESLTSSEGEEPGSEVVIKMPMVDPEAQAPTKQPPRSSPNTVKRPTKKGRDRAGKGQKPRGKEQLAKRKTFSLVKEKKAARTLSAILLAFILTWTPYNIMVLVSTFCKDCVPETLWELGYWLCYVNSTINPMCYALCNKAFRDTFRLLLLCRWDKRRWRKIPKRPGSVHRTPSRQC
Type: cell-based
Experimental: CHO-K1 cells stably expressing human M1 receptor with aequorin (Perkin Elmer) were grown in F12 media (Gibco) containing 10% FBS (ATCC), 0.4 mg/mL geneticin (Sigma-Aldrich) and 0.25 mg/mL Zeocin (Invitrogen). Cells were grown as per the manufacturer's protocol. For compound testing, cells were grown to confluency and detached gently with Accutase (Sigma-Aldrich) followed by centrifugation for 5 min at 150× g. Cells were then re-suspended in assay buffer (i.e. DMEM/F-12 HEPES without phenol red (Invitrogen) with 0.1% BSA (Sigma-Aldrich)) at a density of 5×10^6 cells/ml. Under sterile conditions, 5 μM coelenterazine (Invitrogen) was added to the cells, mixed, then incubated at room temperature protected from light, with gentle agitation, for 4 h.
Primary compound plates were prepared in 100% DMSO in opaque 96-well plates (VWR) and serially diluted in half log increments. Secondary compound plates were prepared at 3× concentration in assay buffer. Compounds were added to white, clear bottom tissue culture treated 96-well plates (Fisher Scientific). Coelenterazine-loaded cells were then added at 5×10^5 cells/well.
Compounds and cells were incubated at room temperature for 30 min in the dark. Acetylcholine at the EC80 concentration was added and calcium flux measured using a FlexStation 3 (Molecular Devices). Sigmoidal dose-response curves were generated by measuring luminescence over 40 sec and calculating the area under the curve. Dose response curves and IC50 values were generated using Prism (GraphPad). Compounds were tested at a final concentration range of 100 μM to […] in 0.1% DMSO.

Row | SMILES | IC50
1 | COc1cncc(C2(OCC(=O)N3CC4CCC(C3)N4c3ccc(C#N)cn3)CC2)c1 [Example 230, 6-(3-(2-(1-(5-methoxypyridin-3-yl)cyclopropoxy)acetyl)-3,8-diazabicyclo[3.2.1]octan-8-yl)nicotinonitrile] | < 10 nM
2 | N#Cc1ccc(N2C3CCC2CN(C(=O)COC2(c4ccc(F)c(C#N)c4)CC2)C3)nc1 [Example 291, 6-(3-(2-(1-(3-cyano-4-fluorophenyl)cyclopropoxy)acetyl)-3,8-diazabicyclo[3.2.1]octan-8-yl)nicotinonitrile] | 100 to 1000 nM
3 | COc1c(F)cccc1C(C)NCC(=O)N1CC2CCC(C1)N2c1ccc(C#N)cn1 (racemic) [Example 55, 6-(3-((1-(3-fluoro-2-methoxyphenyl)ethyl)glycyl)-3,8-diazabicyclo[3.2.1]octan-8-yl)nicotinonitrile] | < 10 nM
4 | COc1ccccc1C1(NCCC(=O)N2CC3CCC(C2)N3c2ccc(C#N)cn2)CC1 [Example 15, 6-(3-(3-((1-(2-methoxyphenyl)cyclopropyl)amino)propanoyl)-3,8-diazabicyclo[3.2.1]octan-8-yl)nicotinonitrile] | 10 to 100 nM
5 | N#Cc1ccc(N2C3CCC2CN(C(=O)COC2(c4cccc(F)c4)CC2)C3)nc1 [Example 206, 6-(3-(2-(1-(3-fluorophenyl)cyclopropoxy)acetyl)-3,8-diazabicyclo[3.2.1]octan-8-yl)nicotinonitrile] | 100 to 1000 nM
6 | COc1cc([C@@H](C)NCCC(=O)N2C[C@H]3CC[C@@H](C2)N3c2ccc(C#N)cn2)ccn1 [Example 21, 6-(3-(3-(((R)-1-(2-methoxypyridin-4-yl)ethyl)amino)propanoyl)-3,8-diazabicyclo[3.2.1]octan-8-yl)nicotinonitrile] | 100 to 1000 nM
7 | CC(NCCC(=O)N1CC2CCC(C1)N2c1ccc(C#N)cn1)c1cccc2ncccc12 (racemic) [Example 48, 6-(3-(3-((1-(quinolin-5-yl)ethyl)amino)propanoyl)-3,8-diazabicyclo[3.2.1]octan-8-yl)nicotinonitrile] | < 10 nM
8 | N#Cc1ccc(N2C3CCC2CN(C(=O)COCC(F)(F)c2cccn4ncnc24)C3)nc1 [Example 278, 6-(3-(2-(2-([1,2,4]triazolo[1,5-a]pyridin-8-yl)-2,2-difluoroethoxy)acetyl)-3,8-diazabicyclo[3.2.1]octan-8-yl)nicotinonitrile] | < 10 nM
9 | CC(C)(NCCC(=O)N1C[C@H]2CC[C@@H](C1)N2c1ccc(C#N)cn1)c1cccc2ncccc12 [Example 25, 6-(3-(3-((2-(quinolin-5-yl)propan-2-yl)amino)propanoyl)-3,8-diazabicyclo[3.2.1]octan-8-yl)nicotinonitrile] | < 10 nM
10 | COc1cccc(C2(NCC(=O)N3CC4CCC(C3)N4c3ccc(C#N)cn3)CC2)c1F [Example 103, 6-(3-((1-(2-fluoro-3-methoxyphenyl)cyclopropyl)glycyl)-3,8-diazabicyclo[3.2.1]octan-8-yl)nicotinonitrile] | 10 to 100 nM
11 | N#Cc1ccc(N2C[C@@H]3CC[C@H]2CN3C(=O)CNC2(c3ccc(F)cc3F)CC2)nc1 [Example 83, 6-((1S,4S)-5-((1-(2,4-difluorophenyl)cyclopropyl)glycyl)-2,5-diazabicyclo[2.2.2]octan-2-yl)nicotinonitrile] | 1000 to 10000 nM
12 | CC(C)(O)C(NCCC(=O)N1C[C@H]2CC[C@@H](C1)N2c1ccc(C#N)cn1)c1ccccc1 (mixture of isomers) [Example 49, 6-(3-(3-((2-hydroxy-2-methyl-1-phenylpropyl)amino)propanoyl)-3,8-diazabicyclo[3.2.1]octan-8-yl)nicotinonitrile] | 1000 to 10000 nM
13 | COc1cc(C2(OCC(=O)N3CC4CCC(C3)N4c3ccc(C#N)cn3)CCCC2)ccn1 [Example 267, 6-(3-(2-((1-(2-methoxypyridin-4-yl)cyclopentyl)oxy)acetyl)-3,8-diazabicyclo[3.2.1]octan-8-yl)nicotinonitrile] | 10 to 100 nM
14 | N#Cc1ccc(N2C3CCC2CN(C(=O)CNC2(c4ccc(F)c(F)c4)CC2)C3)nc1 [Example 60, 6-(3-((1-(3,4-difluorophenyl)cyclopropyl)glycyl)-3,8-diazabicyclo[3.2.1]octan-8-yl)nicotinonitrile] | 10 to 100 nM
15 | COc1cncc(C2(OCC(=O)N3CC4CCC(C3)N4c3ccnc(C#N)c3)CCC2)c1 [Example 281, 4-(3-(2-(1-(5-methoxypyridin-3-yl)cyclobutoxy)acetyl)-3,8-diazabicyclo[3.2.1]octan-8-yl)picolinonitrile] | < 10 nM
16 | COc1ccc(C2(OCC(=O)N3CC4CCC(C3)N4c3ccc(C#N)cn3)CCC2)cn1 [Example 257, 6-(3-(2-(1-(6-methoxypyridin-3-yl)cyclobutoxy)acetyl)-3,8-diazabicyclo[3.2.1]octan-8-yl)nicotinonitrile] | 1000 to 10000 nM
17 | N#Cc1ccc(N2C3CCC2CN(C(=O)COC2(c4cc(F)ccc4F)CC2)C3)nc1 [Example 213, 6-(3-(2-(1-(2,5-difluorophenyl)cyclopropoxy)acetyl)-3,8-diazabicyclo[3.2.1]octan-8-yl)nicotinonitrile] | 10 to 100 nM
18 | N#Cc1ccc(N2C3CCC2CN(C(=O)CNC(c2ccc(F)cc2F)C(F)F)C3)nc1 (racemic) [Example 128, 6-(3-((1-(2.4-difluorophenyl)-2,2-difluoroethyl)glycyl)-3,8-diazabicyclo[3.2.1]octan-8-yl)nicotinonitrile] | 10 to 100 nM
19 | COc1ccc(C2(NCCC(=O)N3CC4CCC(C3)N4c3ccc(C#N)cn3)CC2)cc1 [Example 17, 6-(3-(3-((1-(4-methoxyphenyl)cyclopropyl)amino)propanoyl)-3,8-diazabicyclo[3.2.1]octan-8-yl)nicotinonitrile] | 100 to 1000 nM
20 | N#Cc1ccc(N2C3CCC2CN(C(=O)CCOC2(c4ccc(F)cc4)CCC2)C3)nc1 [Example 310, 6-(3-(3-(1-(4-fluorophenyl)cyclobutoxy)propanoyl)-3,8-diazabicyclo[3.2.1]octan-8-yl)nicotinonitrile] | < 10 nM
21 | N#Cc1ccc(N2C3CCC2CN(C(=O)COC2(c4c(F)cncc4F)CCC2)C3)nc1 [Example 316, 6-(3-(2-(1-(3,5-difluoropyridin-4-yl)cyclobutoxy)acetyl)-3,8-diazabicyclo[3.2.1]octan-8-yl)nicotinonitrile] | < 10 nM
22 | CC(OCC(=O)N1CC2CCC(C1)N2c1ccc(C#N)cn1)c1cccn2ncnc12 (racemic) [Example 196, 6-(3-(2-(1-([1,2,4]triazolo[1,5-a]pyridin-8-yl)ethoxy)acetyl)-3,8-diazabicyclo[3.2.1]octan-8-yl)nicotinonitrile] | < 10 nM
23 | N#Cc1ccc(N2C3CCC2CN(C(=O)COC2(c4ccc(F)cc4)COC2)C3)nc1 [Example 240, (3-(2-((3-(4-fluorophenyl)oxetan-3-yl)oxy)acetyl)-3,8-diazabicyclo[3.2.1]octan-8-yl)nicotinonitrile] | 100 to 1000 nM
24 | N#Cc1ccc(N2C3CCC2CN(C(=O)COC2(c4ccncc4F)CCC2)C3)nc1 [Example 247, 6-(3-(2-(1-(3-fluoropyridin-4-yl)cyclobutoxy)acetyl)-3,8-diazabicyclo[3.2.1]octan-8-yl)nicotinonitrile] | < 10 nM
25 | COc1cc(C(F)(F)CCC(=O)N2CC3CCC(C2)N3c2ccc(C)nn2)ccn1 [Example 157, 4,4-difluoro-4-(2-methoxypyridin-4-yl)-1-(8-(6-methylpyridazin-3-yl)-3,8-diazabicyclo[3.2.1]octan-3-yl)butan-1-one] | 100 to 1000 nM
26 | CC(c1ccc(F)c(F)c1)N1CC(C(=O)N2CC3CCC(C2)N3c2ccc(C#N)cn2)C1 (racemic) [Example 137, 6-(3-(1-(1-(3,4-difluorophenyl)ethyl)azetidine-3-carbonyl)-3,8-diazabicyclo[3.2.1]octan-8-yl)nicotinonitrile] | 100 to 1000 nM
27 | COc1cc(C2(NCC(=O)N3CC4CCC(C3)N4c3ccc(C#N)cn3)CC2)ccn1 [Example 73, 6-(3-((1-(2-methoxypyridin-4-yl)cyclopropyl)glycyl)-3,8-diazabicyclo[3.2.1]octan-8-yl)nicotinonitrile] | 10 to 100 nM
28 | COc1cccc([C@H](C)NCC(=O)N2CC3CCC(C2)N3c2ccc(C#N)cn2)c1 [Example 92, 6-(3-(((S)-1-(3-methoxyphenyl)ethyl)glycyl)-3,8-diazabicyclo[3.2.1]octan-8-yl)nicotinonitrile] | < 10 nM
29 | N#Cc1ccc(N2C3CCC2CN(C(=O)COC2(c4cccc(Br)c4)CC2)C3)nc1 [Example 209, 6-(3-(2-(1-(3-bromophenyl)cyclopropoxy)acetyl)-3,8-diazabicyclo[3.2.1]octan-8-yl)nicotinonitrile] | 100 to 1000 nM
